Results on four compounds are retold here after patent US20140315717A1 (priority 2006, published 2014).

The test system of one test is Verticillium dahliae. Briefly: Protection of cotton against Verticillium wilt, seedling dipping inoculation. It counts as in vivo. The conditions noted are these: for Plant survival rating (out of 10) / Severity rating (1-9): cotton ST6611, DCSA 1 lb/A, glyphosate 0.75 lb/A 24 hours before inoculation; for Severity rating (1-9): 1 healthy, 9 dead. An excerpt: DCSA was unexpectedly found to provide protection to cotton plants against Verticillium dahliae, causal agent of cotton wilt disease (Table 6). Cotton plants of the variety ST6611, BOLLGARD 2, ROUNDUP READY FLEX, were inoculated with a moderate isolate (DPL) or a virulent isolate (King) of Verticillium by a seedling dipping method. Seedlings at the first true leaf stage were taken out from the pots, one inch of roots were cut off, seedlings were dipped in a spore slurry for one minute, and then transplanted back in the pots. These strains were isolated and provided by Dr. Terry Wheeler (Texas A&M University, TX USA). DCSA was applied at the rate of 1 lb/A and glyphosate (ROUNDUP WEATHERMAX, Monsanto) at the rate of 0.75 lb/A 24 hours before inoculation. Protection against Verticillium was measured on a disease severity scale of 1-9: 1 being healthy and 9 being dead because of disease, and also was measured as the number of plants that survived out of 10 inoculated plants.

The test system of a further test is soybean. As to conditions: DMO transgenic soybean, dicamba 1.5 lb ae/acre Pre and/or Post (V3-4), in 4/5 events and 13/15 treatments, FIG. 6. How it is done: The yield enhancing-benefit of DSCA was tested by growing non-transgenic and transgenic plants and applying dicamba to transgenic plants and harvesting the seeds. Non-transgenic and transgenic soybean seeds were planted near the beginning of the growing season in several locations at the time of best possible growth conditions such as soil moisture, temperature, and seeding depth. […] In all, 240 plots were planted at 6 locations (40 per location).
Four non-transgenic border rows were planted all around the trial using a known commercial line such as A3525. Optimum production and management practices known in the art were followed. Maximum pest control and disease control was practiced as needed to prevent confounding effects of dicamba applications. The field was irrigated as needed according to standard practices.

In test [1] the test system is PR-2, i.e., β-1,3-glucanase. Briefly: Induction of PR-2 mRNA (northern blot) in DMO soybean after spraying. The conditions noted are these: for induction of PR2 at various rates: 0.25, 0.5 and 1 lb/acre, 24 hrs after treatment, two independent transgenic soybean lines, FIG. 2. The class given is in vivo. An excerpt:
(§1) Transgenic and control soybean seeds (cultivars Thorne, NE3001, A3525) were planted into 3.5-inch square plastic pots containing Redi-Earth™ (Scotts-Sierra Horticultural Products Co., Marysville, Ohio). The pots were placed on capillary matting in 35 inch×60 inch fiberglass watering trays for overhead and/or sub-irrigation for the duration of the test period so as to maintain optimum soil moisture for plant growth and were fertilized with Osmocote® (14-14-14 slow release; Scotts-Sierra Horticultural Products Co., Marysville, Ohio) at the rate of 100 gm/cu. ft. to sustain plant growth for the duration of greenhouse trials.
(§2) A 14 hour minimum photoperiod was provided with supplemental light at about 600 μE (micro-Einsteins) as needed. Trials were established in a randomized block design randomized by rate with 4 to 6 replications of each treatment.
(§3) All herbicide applications were made with the track sprayer using a Teejet® 9501E flat fan nozzle (Spraying Systems Co, Wheaton, Ill.) with air pressure set at a minimum of 24 psi (pounds per square inch), or 165 kpa (kilopascals)). The spray nozzle was kept at a height of about 16 inches above the top of plant material for spraying. The spray volume was 10 gallons per acre or 93 liters per hectare. Applications were made when plants had reached V-3 stage.
Leaf samples were harvested after 0, 3, 8, 24, 48, 72 hrs after treatment (HAT) and frozen for further analysis. […] RNA was extracted and analyzed by northern blot analysis using PR-2, i.e., β-1,3-glucanase as a probe.

The test system of a further test is soybean plants. It counts as in vivo.
Description: as §1, §2, §3
For this example, the plants were grown as described in the above example. Transgenic and non transgenic soybean plants carrying the DMO gene in their genome were either treated with Paraquat (Gramoxone®; Syngenta) to create oxidative stress or with dicamba followed by Paraquat at V3 stage. The dicamba rate was 1 lb/acre or 1120 g ae/ha. Paraquat was applied at 30, 70, or 200 g ae/ha. Plants were then evaluated for paraquat injury by visually assessing injury at a particular day after treatment (DAT) for injury on a scale of 0 to 100 percent relative to untreated control plants, with zero representing “no” injury and 100% representing “complete” injury or death. Data were collected and analyzed using suitable statistical methods.
In another experiment, the effect of externally applied DCSA was tested for its benefit in protecting soybean plants from oxidative stress injury caused by Paraquat. Different amounts of DCSA were applied 24 hrs before applying Paraquat to test any correlation between the amount of DCSA applied and the extent of protection obtained from oxidative stress measured in terms of reduction in % injury as described above. Different levels of dicamba were also applied separately to test the same hypothesis.

For another test, the system named is cotton plants. As to the kind of experiment: Paraquat (Gramoxone) oxidative stress injury in cotton, visual % injury. The class given is in vivo. As to conditions: for Percentage injury: 2 DAT, DCSA where applied 1 lb/acre 24 hours before. As to the method: Four different cotton cultivars as indicated in Table 3 were grown in 4-inch pots for two weeks. These cotton plants were either sprayed with DCSA (BASF) at the 1 lb/A rate, or unsprayed (no DCSA application, as control). Experimental plants (treated with DCSA and untreated) were sprayed with Paraquat (Gramoxone®; Syngenta) at 30 gm/ha, 70 gm/ha, and 100 gm/ha rates, 24 hours after the application of DCSA, to simulate oxidative stress. […] The same experiment was repeated at two different growth stages of cotton (2 nodes stage and 5 nodes stage).

In test [2] the test system is Xanthomonas campestris pv. malvacearum. As to the kind of experiment: Bacterial blight tooth pick inoculation of sprayed cotton plants. As to conditions: two-week old cotton, DCSA sprayed about 24 hours before inoculation, FIG. 4. It counts as in vivo. As to the method:
In this example, two-week old cotton plants were sprayed with DCSA while control plants received spray application of water only. The plants were inoculated with bacterial blight pathogen (Xanthomonas campestris pv. malvacearum) about 24 hours after the DCSA spray application using a tooth pick inoculation method. As shown in the FIG. 4, the cotton plants inoculated with the bacterial pathogen but not sprayed with DCSA developed necrotic spots, typical symptoms of bacterial blight. […] The results of this experiment indicate that DCSA application reduced bacterial infection on cotton plants when inoculated with bacterial pathogen 24 hours after the DCSA spray.

Test [3] has as its system Root Knot Nematode (RKN; Meloidogyne incognita). As to the kind of experiment: Control of cotton root knot nematode in cotton plants (ST474). The class given is in vivo. The conditions noted are these: RKN + DCSA. As to the method:
DCSA was unexpectedly found to control gall formation, improve plant height and reduce number of eggs produced by the nematode in cotton plants (ST474) (Table 5). Ten to fourteen days old cotton plants were treated with DCSA at the rate of […], 24 hrs before inoculating them with RKN eggs. […] Plant height, gall rating, and egg counts were measured 45 days after inoculation. The gall rating scale was 0-5 with 0=no visible galling and 5=heavy galling.

The next test concerns Pythium ultimum. Briefly: Pythium ultimum inoculation of sprayed cotton seedlings. It counts as in vivo. The conditions noted are these: cotton plants contacted with 3,6-DCSA; untreated plants are killed. As to the method:
Ten-day old Roundup Ready® Flex Cotton (Event MON 88913; U.S. Publ. 20060059590) seedlings were sprayed with a mixture of Roundup Weather Max® (Monsanto, St. Louis, Mo.) and 3,6-DCSA (BASF). The control plants were sprayed with water only. The cotton seedlings from both treatments were inoculated with Pythium ultimum by dipping seedling into inoculum slurry, 24 hours after the spray application. The positive control plants were neither sprayed nor inoculated with P. P. ultimum. […] Cotton plants treated with Roundup® and DCSA were as healthy as were the plants not inoculated with P. ultimum.

The mark [4] stands for this setting: Verticillium isolate DPL (moderate).
[5] abbreviates: Verticillium isolate King (virulent).
The mark [6] stands for this setting: individual cotton plants 1-8, DCSA 24 hrs before inoculation, 45 days after inoculation.

Values joined by “and” are separate entries in the source; they are usually repeats but may differ in a detail not shown here. Equal values may be shown once. Read-outs that look alike come from different tables or passages of the source.

As to `O=C(O)CNCP(=O)(O)O` [Glyphosate, N-phosphonomethylglycine, reference compound], in the test with Verticillium dahliae (setting [4]), the “Plant survival rating (out of 10)” value is 10 and the “Severity rating (1-9)” value was found to be 2. In the test with Verticillium dahliae (setting [5]), the “Plant survival rating (out of 10)” value was found to be 10 and the “Severity rating (1-9)” value turned out to be 3.5.
As to `COc1c(Cl)ccc(Cl)c1C(=O)O` [Dicamba, 3,6-dichloro-2-methoxybenzoic acid], the “yield relative to unsprayed controls” value with soybean is listed as “an increase or equivalent yield to unsprayed controls”. In addition, the “induction of PR2 at various rates” value in test [1] is listed as “induction of PR2”. Besides, the “induction of PR2 at various time points” value in test [1] (DMO soybean, dicamba (Clarity) 1 lb/acre at Post-V3, leaf samples 0-72 HAT, FIG. 1) is “induction of PR2”. Further, in the test on soybean plants (in vivo), the “% injury at 5 DAT” value was 65.00% and 54.17% and 45.83% and 51.67% and 40.83%; the Paraquat injury entry was “significantly reduced Paraquat injury”; the “protection against oxidative stress caused by subsequently applied paraquat” value is “provided protection against oxidative stress”.
Turning to `C[n+]1ccc(-c2cc[n+](C)cc2)cc1` [Paraquat], the Percentage injury in the test on cotton plants (cotton ST3273B2RF, Gramoxone 30 g a.i./ha) worked out at 35%; with cotton plants (cotton ST3273B2RF, Gramoxone 70 g a.i./ha), 50%; in the test on cotton plants (cotton ST3273B2RF, Gramoxone 100 g a.i./ha) it was 50%; with cotton plants (cotton ST4575BR, Gramoxone 100 g a.i./ha) it was 65%; in the test on cotton plants (cotton ST4646B2RF, Gramoxone 100 g a.i./ha), 70%; in the test with cotton plants (cotton ST6622RF, Gramoxone 70 g a.i./ha), 50%. Further, the Percentage injury in the test with cotton plants (cotton ST6622RF, Gramoxone 100 g a.i./ha) is 70%. The “% injury” value in the test with soybean plants (N3001 (non-transgenic) soybean, paraquat 200 g ae/ha, V-3 stage, 4 DAT) stood at 75%. Further, the “% injury at 5 DAT Paraquat alone control” value is 75.83% in the test with soybean plants (transgenic event 462-1-21, paraquat 100 g ae/ha alone) and 77.50% in the test with soybean plants (transgenic event 469-13-19, paraquat 100 g ae/ha alone). The injury rate result in the test with soybean plants (transgenic soybean plants contacted with Paraquat alone) is recorded as “about 75%”.
In the case of `O=C(O)c1c(Cl)ccc(Cl)c1O` [DCSA, 3,6-dichloro salicylic acid], the “Plant survival rating (out of 10)” value in the test on Verticillium dahliae (setting [4]) and in the test with Verticillium dahliae (setting [5]) was 10 each time. In addition, the “Severity rating (1-9)” value with Verticillium dahliae (setting [4]) was determined as 1; in the test on Verticillium dahliae (setting [5]) it was 2. Besides, the “protection against Verticillium” value in the test with Verticillium dahliae (cotton, isolates DPL and King, DCSA 1 lb/A 24 hours before inoculation) was “provided protection against both moderate and strong isolates of Verticillium dahliae”. Also, the “induction of PR2 at various rates” value in test [1] is listed as “induction of PR2”. Further, the bacterial blight symptoms result in test [2] was “only localized lesions (HR response) and no increase in bacterial blight symptoms”. In the test on cotton plants (four varieties of RR cotton pretreated with DCSA (24 hours), two nodes stage and 5 nodes stage), the Gramoxone injury result is “reduced significantly”. For the same compound, the “% injury at 5 DAT” value was 50.83% in the test on soybean plants (event 469-13-19, 280 g/ha of Dicamba or DCSA followed by 100 g ae/ha of paraquat); 48.33% in the test with soybean plants (event 469-13-19, 561 g/ha of Dicamba or DCSA followed by 100 g ae/ha of paraquat); 43.33% in the test on soybean plants (event 469-13-19, 1120 g/ha of Dicamba or DCSA followed by 100 g ae/ha of paraquat); 66.67% and 53.33% and 49.17% in the test with soybean plants (in vivo). In addition, the “protection against oxidative stress caused by subsequently applied paraquat” value in the test on soybean plants (transgenic soybean, applied 24 hrs before Paraquat, reduction in injury increased with rate) was “provided protection against oxidative stress”. The “RKN Gall Rating (0-5)” value in test [3] (individual cotton plants 1-8, 45 days after inoculation, 0=no visible galling, 5=heavy galling) is 0 (4×) and 2 and 1 (3×). The “Egg Count/pot” value in test [3] (setting [6]) is 5,200 and 1,800 and 2,200. Besides, in test [3] (setting [6]), the “Plant Height” value was 25.4 cm (3×) and 22.2 cm and 17.8 cm and 14.0 cm and 15.9 cm and 12.7 cm. For the same compound, the “Plant Height, Mean” value in test [3] (mean of 8 cotton plants, 45 days after inoculation) is listed as 19.8 cm. Also, the “RKN Gall Rating (0-5), Mean” value in test [3] (mean of 8 cotton plants, 45 days after inoculation, 0=no visible galling, 5=heavy galling) turned out to be 0.6. Also, the “survival of cotton plants after inoculation with Pythium ultimum” value with Pythium ultimum was “survive inoculation”.
